These results are taken from patent US20060276464A1, “Diarylsulfone sulfonamides and use thereof” (Wyeth, priority 2005, published 2006).

The data set has as its target T1, SFRP-1 (Homo sapiens, UniProt Q8N474).
T1 sequence (Q8N474 32-314): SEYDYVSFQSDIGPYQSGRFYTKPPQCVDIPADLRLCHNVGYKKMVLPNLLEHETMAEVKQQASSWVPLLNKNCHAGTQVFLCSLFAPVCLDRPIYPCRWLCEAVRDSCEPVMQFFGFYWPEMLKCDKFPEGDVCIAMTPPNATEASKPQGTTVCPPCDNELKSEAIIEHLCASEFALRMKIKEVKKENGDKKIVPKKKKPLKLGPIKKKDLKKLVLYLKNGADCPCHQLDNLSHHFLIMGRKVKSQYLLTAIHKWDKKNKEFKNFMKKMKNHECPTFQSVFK
The data set can be described thus: Cell-based assay for in vitro measurement of SFRP-1/SARP2 antagonist activity (U2OS cells co-transfected with 16x TCF-tk-Luciferase reporter, Wnt and hSFRP-1).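 On all read-outs here: U2OS cells co-transfected with a TCF-tk luciferase reporter, a Wnt vector, hSFRP-1 or empty vector and CMV-βgal, luciferase luminescence read in cell lysates alongside βgal activity.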 Conditions: for fold induction at 30 µM / fold induction at 15 µM: U2OS.

Where [1] appears, read: read-out: Fold Induction with SFRP-1, Conc 30 μM, with SFRP-1, fold induction over SFRP-1 control, single dose.
The mark [2] stands for this setting: read-out: Fold Induction without SFRP-1, Conc 30 μM, without SFRP-1, single dose.
Where [3] appears, read: read-out: Fold Induction with SFRP-1, Conc 15 μM, with SFRP-1, fold induction over SFRP-1 control, single dose.
[4] abbreviates: read-out: Fold Induction without SFRP-1, Conc 15 μM, without SFRP-1, single dose.

Each structure is given as a SMILES string. Read-outs that look alike come from different tables or passages of the source.

`COc1ccc(CCNS(=O)(=O)c2cc(S(=O)(=O)c3ccc(C)cc3)ccc2C)cc1OC` [Example 120, N-[2-(3,4-dimethoxyphenyl)ethyl]-2-methyl-5-[(4-methylphenyl)sulfonyl]benzenesulfonamide]: the fold induction at 30 µM under setting [1] amounted to 1.2 and the fold induction at 30 µM under setting [2] worked out at 0.5.
Take `Cc1ccc(S(=O)(=O)c2ccc(C)c(S(=O)(=O)NCCc3ccccc3F)c2)cc1` [Example 138, N-[2-(2-fluorophenyl)ethyl]-2-methyl-5-[(4-methylphenyl)sulfonyl]benzenesulfonamide]: the fold induction at 15 µM under setting [3] was determined as 2.7 and the fold induction at 15 µM under setting [4] stood at 0.9. Besides, the fold induction at 30 µM is, setting by setting: under setting [1], 1.1; under setting [2], 0.5.
For `CCc1ccc(S(=O)(=O)c2ccccc2)cc1S(=O)(=O)NCCc1ccccc1` [Example 141, 2-ethyl-N-(2-phenylethyl)-5-(phenylsulfonyl)benzenesulfonamide], the fold induction at 15 µM was found to be 3.3 under setting [3] and 1 under setting [4].
On the same counts, the results for `CCc1ccc(S(=O)(=O)c2ccccc2)cc1S(=O)(=O)NCCc1ccccc1OC` [Example 142, 2-ethyl-N-[2-(2-methoxyphenyl)ethyl]-5-(phenylsulfonyl)benzenesulfonamide] are 3.2 and 1.3.
On the same counts, the results for `CCc1ccc(S(=O)(=O)c2ccccc2)cc1S(=O)(=O)NCCc1cccc(OC)c1` [Example 143, 2-ethyl-N-[2-(3-methoxyphenyl)ethyl]-5-(phenylsulfonyl)benzenesulfonamide] are 3.3 and 0.7.
Take `CCc1ccc(S(=O)(=O)c2ccccc2)cc1S(=O)(=O)NCCc1ccc(OC)c(OC)c1` [Example 144, N-[2-(3,4-dimethoxyphenyl)ethyl]-2-ethyl-5-(phenylsulfonyl)benzenesulfonamide]: the fold induction at 15 µM under setting [3] is 3 and the fold induction at 15 µM under setting [4] was found to be 1.1.
`CCc1ccc(S(=O)(=O)c2ccccc2)cc1S(=O)(=O)NCCc1ccc(S(N)(=O)=O)cc1` [Example 145, N-{2-[4-(aminosulfonyl)phenyl]ethyl}-2-ethyl-5-(phenylsulfonyl)benzenesulfonamide]: the fold induction at 15 µM under setting [3] was determined as 2.2 and the fold induction at 15 µM under setting [4] was determined as 1.2.
Turning to `CCc1ccc(S(=O)(=O)c2ccccc2)cc1S(=O)(=O)NCCc1cccc(F)c1` [Example 146, 2-ethyl-N-[2-(3-fluorophenyl)ethyl]-5-(phenylsulfonyl)benzenesulfonamide], the fold induction at 15 µM by setting is: under setting [3], 2.1; under setting [4], 1.3.
For the molecule `CCc1ccc(S(=O)(=O)c2ccccc2)cc1S(=O)(=O)NCCc1ccccc1F` [Example 147, 2-ethyl-N-[2-(2-fluorophenyl)ethyl]-5-(phenylsulfonyl)benzenesulfonamide], the fold induction at 15 µM runs as follows: under setting [3], 3.2; under setting [4], 1.
As to `CCOc1cc(CCNS(=O)(=O)c2cc(S(=O)(=O)c3ccccc3)ccc2CC)ccc1OC` [Example 148, N-[2-(3-ethoxy-4-methoxyphenyl)ethyl]-2-ethyl-5-(phenylsulfonyl)benzenesulfonamide], the fold induction at 15 µM by setting is: under setting [3], 2.8; under setting [4], 1.1.
As to `CCOc1ccc(CCNS(=O)(=O)c2cc(S(=O)(=O)c3ccccc3)ccc2CC)cc1OC` [Example 149, N-[2-(4-ethoxy-3-methoxyphenyl)ethyl]-2-ethyl-5-(phenylsulfonyl)benzenesulfonamide], the fold induction at 15 µM by setting is: under setting [3], 3.1; under setting [4], 1.1.
On to `COc1ccc(S(=O)(=O)c2ccccc2)cc1S(=O)(=O)NCCc1ccccc1` [Example 150, 2-methoxy-N-(2-phenylethyl)-5-(phenylsulfonyl)benzenesulfonamide], for which the fold induction at 15 µM by setting is: under setting [3], 1.5; under setting [4], 1.2.
Take `COc1ccccc1CCNS(=O)(=O)c1cc(S(=O)(=O)c2ccccc2)ccc1OC` [Example 151, 2-methoxy-N-[2-(2-methoxyphenyl)ethyl]-5-(phenylsulfonyl)benzenesulfonamide]: the fold induction at 15 µM was found to be 1.4 under setting [3] and 1.1 under setting [4].
As for `COc1cccc(CCNS(=O)(=O)c2cc(S(=O)(=O)c3ccccc3)ccc2OC)c1` [Example 152, 2-methoxy-N-[2-(3-methoxyphenyl)ethyl]-5-(phenylsulfonyl)benzenesulfonamide], the fold induction at 15 µM runs as follows: under setting [3], 1.6; under setting [4], 1.1.
As to `COc1ccc(CCNS(=O)(=O)c2cc(S(=O)(=O)c3ccccc3)ccc2OC)cc1OC` [Example 153, N-[2-(3,4-dimethoxyphenyl)ethyl]-2-methoxy-5-(phenylsulfonyl)benzenesulfonamide], the fold induction at 15 µM runs as follows: under setting [3], 1.5; under setting [4], 1.1.
On to `COc1ccc(S(=O)(=O)c2ccccc2)cc1S(=O)(=O)NCCc1ccc(S(N)(=O)=O)cc1` [Example 154, N-{2-[4-(aminosulfonyl)phenyl]ethyl}-2-methoxy-5-(phenylsulfonyl)benzenesulfonamide], for which the fold induction at 15 µM runs as follows: under setting [3], 1.4; under setting [4], 1.3.
`COc1ccc(S(=O)(=O)c2ccccc2)cc1S(=O)(=O)NCCc1cccc(F)c1` [Example 155, N-[2-(3-fluorophenyl)ethyl]-2-methoxy-5-(phenylsulfonyl)benzenesulfonamide]: the fold induction at 15 µM by setting is: under setting [3], 1.5; under setting [4], 1.2.
On to `COc1ccc(S(=O)(=O)c2ccccc2)cc1S(=O)(=O)NCCc1ccccc1F` [Example 156, N-[2-(2-fluorophenyl)ethyl]-2-methoxy-5-(phenylsulfonyl)benzenesulfonamide], for which the fold induction at 15 µM under setting [3] was determined as 1.4 and the fold induction at 15 µM under setting [4] turned out to be 1.4.
As to `CCOc1cc(CCNS(=O)(=O)c2cc(S(=O)(=O)c3ccccc3)ccc2OC)ccc1OC` [Example 157, N-[2-(3-ethoxy-4-methoxyphenyl)ethyl]-2-methoxy-5-(phenylsulfonyl)benzenesulfonamide], the fold induction at 15 µM came out at 1.5 under setting [3] and 1.2 under setting [4].
As for `CCOc1ccc(CCNS(=O)(=O)c2cc(S(=O)(=O)c3ccccc3)ccc2OC)cc1OC` [Example 158, N-[2-(4-ethoxy-3-methoxyphenyl)ethyl]-2-methoxy-5-(phenylsulfonyl)benzenesulfonamide], the fold induction at 15 µM runs as follows: under setting [3], 1.4; under setting [4], 1.1.
Regarding `Cc1ccc(S(=O)(=O)c2ccc(F)cc2)cc1S(=O)(=O)NCCC(N)=O` [Example 159, N^3-({5-[(4-fluorophenyl)sulfonyl]-2-methylphenyl}sulfonyl)-beta-alaninamide], the fold induction at 15 µM runs as follows: under setting [3], 1.8; under setting [4], 0.9.
Regarding `COC(=O)CCNS(=O)(=O)c1cc(S(=O)(=O)c2ccc(F)cc2)ccc1C` [Example 160, methyl N-({5-[(4-fluorophenyl)sulfonyl]-2-methylphenyl}sulfonyl)-beta-alaninate], the fold induction at 15 µM is 2.4 under setting [3] and 0.9 under setting [4].
Regarding `Cc1ccc(S(=O)(=O)c2ccc(F)cc2)cc1S(=O)(=O)NCCC#N` [Example 161, N-(2-cyanoethyl)-5-[(4-fluorophenyl)sulfonyl]-2-methylbenzenesulfonamide], the fold induction at 15 µM by setting is: under setting [3], 2.7; under setting [4], 1.
As to `Cc1ccc(S(=O)(=O)c2ccc(F)cc2)cc1S(=O)(=O)NCCc1ccccn1` [Example 162, 5-[(4-fluorophenyl)sulfonyl]-2-methyl-N-(2-pyridin-2-ylethyl)benzenesulfonamide], for the setting “Conc 15 μM, with SFRP-1, fold induction over SFRP-1 control, single dose”, the “Fold Induction with SFRP-1” value was found to be 2.5 fold. Besides, the “Fold Induction without SFRP-1” value (Conc 15 μM, without SFRP-1, single dose) was found to be 1 fold. The fold induction at 15 µM stood at 2.7 under setting [3] and 0.8 under setting [4].
As for `Cc1ccc(S(=O)(=O)c2ccc(F)cc2)cc1S(=O)(=O)NCCCN1CCOCC1` [Example 163, 5-[(4-fluorophenyl)sulfonyl]-2-methyl-N-(3-morpholin-4-ylpropyl)benzenesulfonamide], the fold induction at 15 µM was found to be 2 under setting [3] and 0.9 under setting [4].
With `Cc1ccc(S(=O)(=O)c2ccc(F)cc2)cc1S(=O)(=O)NCCC1CCCN1C` (centres unmarked) [Example 164, 5-[(4-fluorophenyl)sulfonyl]-2-methyl-N-[2-(1-methylpyrrolidin-2-yl)ethyl]benzenesulfonamide], the fold induction at 15 µM under setting [3] worked out at 1.9 and the fold induction at 15 µM under setting [4] came to 1.1.
Taken in the same sequence, the figures for `Cc1ccc(S(=O)(=O)c2ccc(F)cc2)cc1S(=O)(=O)NCCc1ccncc1` [Example 165, 5-[(4-fluorophenyl)sulfonyl]-2-methyl-N-(2-pyridin-4-ylethyl)benzenesulfonamide] were 3.3 and 1.
On to `Cc1ccc(S(=O)(=O)c2ccc(F)cc2)cc1S(=O)(=O)NCCN1CCCCC1` [Example 166, 5-[(4-fluorophenyl)sulfonyl]-2-methyl-N-(2-piperidin-1-ylethyl)benzenesulfonamide], for which the fold induction at 15 µM runs as follows: under setting [3], 2; under setting [4], 1.1.
`Cc1ccc(S(=O)(=O)c2ccc(F)cc2)cc1S(=O)(=O)NCCc1c[nH]cn1` [Example 167, 5-[(4-fluorophenyl)sulfonyl]-N-[2-(1H-imidazol-4-yl)ethyl]-2-methylbenzenesulfonamide]: the fold induction at 15 µM was found to be 3 under setting [3] and 1 under setting [4].
